From paper PMC6442233, “SAR and molecular mechanism studies of monoamine oxidase inhibition by selected chalcone analogs” (Journal of Enzyme Inhibition and Medicinal Chemistry, 2019) come the findings set out here.

Structures are written as SMILES.

For one series, the target named is T1, human MAO-B (Homo sapiens, UniProt P27338).
T1 construct: purchased Sigma-Aldrich
T1 sequence (P27338 1-520): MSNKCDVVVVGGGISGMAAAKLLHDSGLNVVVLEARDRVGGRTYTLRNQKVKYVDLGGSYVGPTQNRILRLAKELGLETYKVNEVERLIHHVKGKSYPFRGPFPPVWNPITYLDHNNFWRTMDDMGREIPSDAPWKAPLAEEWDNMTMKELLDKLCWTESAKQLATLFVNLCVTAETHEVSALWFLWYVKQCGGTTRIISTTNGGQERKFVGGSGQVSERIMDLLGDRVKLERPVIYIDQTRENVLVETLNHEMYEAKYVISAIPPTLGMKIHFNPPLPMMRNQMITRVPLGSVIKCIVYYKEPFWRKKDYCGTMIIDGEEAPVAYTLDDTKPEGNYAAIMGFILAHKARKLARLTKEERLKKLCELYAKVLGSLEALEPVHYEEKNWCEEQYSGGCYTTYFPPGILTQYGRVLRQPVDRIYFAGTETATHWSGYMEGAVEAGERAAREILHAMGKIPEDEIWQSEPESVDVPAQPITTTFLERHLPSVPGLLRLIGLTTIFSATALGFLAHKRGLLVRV
Briefly: IC50 determination for MAO-B inhibition (kynuramine, fluorescence). It counts as biochemical. The settings on record: for Selectivity index: SI = IC50(MAO-A)/IC50(MAO-B); for IC50: recombinant hMAO-B, kynuramine 50 μM, mean ± SD (triplicate). The procedure: (§1) IC50 values for the inhibition of MAO were determined by using the recombinant human MAO-A and MAO-B enzymes (Sigma-Aldrich). Enzyme reactions were performed at a final volume of 200 µL in white 96-well microplates (Eppendorf), with the reaction solvent consisting of potassium phosphate buffer (100 mM, pH 7.4, adjusted to isotonicity with KCl). The reactions contained the nonselective MAO substrate, kynuramine (50 μM), and the test inhibitors at 0.003–100 µM. The test compounds were initially dissolved in DMSO (100%), and after addition to the reactions yielded a concentration of 4% DMSO. Control reactions were included, which contained substrate and 4% DMSO but no test inhibitor. The MAO reactions were started by adding MAO-A (0.0075 mg protein/mL) or MAO-B (0.015 mg protein/mL), and were subsequently incubated for a period of 20 min (37 °C) in a convection oven. A volume of 80 µL 2 N sodium hydroxide was added to the reactions, and the fluorescence intensity of 4-hydroxyquinoline (the end-product of the MAO-catalyzed metabolism of kynuramine) in the reactions was measured at λex 310 and λem 400 nm. To quantify 4-hydroxyquinoline, a calibration curve (linear) ranging from 0.047 to 1.56 μM, was employed. […] These measurements were carried out in triplicate and the IC50 values are presented as the mean ± standard deviation (SD)[18].
(§2) The formation of the dihydropyridinium species (MMDP^+) as a MAO-catalyzed oxidation product of MMTP was monitored at 420 nm. […] Based on this, the IC50 values were determined using kynuramine as a nonselective substrate. The rate of oxidation of kynuramine by MAO was monitored by measuring the fluorescence of the oxidation product, 4-hydroxyquinoline (λex= 310 nm; λem= 400 nm).

A further series deals with T2, human MAO-A (Homo sapiens, UniProt P21397).
T2 construct: purchased Sigma-Aldrich
T2 sequence (P21397 1-527): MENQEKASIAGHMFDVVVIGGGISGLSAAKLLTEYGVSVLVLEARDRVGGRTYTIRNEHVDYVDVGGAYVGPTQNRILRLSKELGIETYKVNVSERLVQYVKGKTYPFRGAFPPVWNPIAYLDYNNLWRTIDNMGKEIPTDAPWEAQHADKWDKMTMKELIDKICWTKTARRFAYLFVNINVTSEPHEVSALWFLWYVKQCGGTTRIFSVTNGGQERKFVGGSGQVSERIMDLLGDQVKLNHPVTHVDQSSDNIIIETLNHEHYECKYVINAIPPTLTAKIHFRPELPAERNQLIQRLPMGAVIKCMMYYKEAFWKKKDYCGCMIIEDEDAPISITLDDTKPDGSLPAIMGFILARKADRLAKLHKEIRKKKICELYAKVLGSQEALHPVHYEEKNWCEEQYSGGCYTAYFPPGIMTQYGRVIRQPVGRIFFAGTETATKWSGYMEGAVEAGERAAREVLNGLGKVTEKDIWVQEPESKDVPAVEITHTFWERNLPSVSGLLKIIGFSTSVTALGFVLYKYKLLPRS
Briefly: IC50 determination for MAO-A inhibition (kynuramine, fluorescence). The settings on record: recombinant hMAO-A, kynuramine 50 μM, mean ± SD (triplicate). It counts as biochemical. The procedure: as §1, §2

What is called IC50 is the concentration that inhibits the measured activity by half. `CN(C)c1ccc(/C=C/C(=O)c2cccc(C(F)(F)F)c2)cc1` [Compound 1, (E)-3–(4-(dimethylamino)phenyl)-1–(3-(trifluoromethyl)phenyl)prop-2-en-1-one]: at human MAO-B, the Selectivity index is on record as 116 and the IC50 worked out at 0.123 ± 0.003 µM. Moreover, at human MAO-A, the IC50 was 14.3 ± 1.81 µM.

In the case of `CN(C)c1ccc(/C=C/C(=O)c2ccc(C(F)(F)F)cc2)cc1` [Compound 2, (E)-3–(4-(dimethylamino)phenyl)-1–(4-(trifluoromethyl)phenyl)prop-2-en-1-one], on human MAO-B, the Selectivity index is >260 and the IC50 was 0.383 ± 0.061 µM. Further, the IC50 at human MAO-A was > 100 µM.

For `CN(C)c1ccc(/C=C/C(=O)c2ccc(Br)cc2)cc1` [Compound 3, (E)-1–(4-bromophenyl)-3–(4-(dimethylamino)phenyl)prop-2-en-1-one], at human MAO-B, the Selectivity index is reported as >185 and the IC50 amounted to 0.539 ± 0.058 µM. Moreover, at human MAO-A, the concentration for half-maximal inhibition (IC50) is > 100 µM.

For the molecule `CN(C)c1ccc(/C=C/C(=O)c2ccc(Cl)cc2)cc1` [Compound 4, (E)-1–(4-chlorophenyl)-3–(4-(dimethylamino)phenyl)prop-2-en-1-one], on human MAO-B, the Selectivity index is >310 and the IC50 is 0.321 ± 0.023 µM. The IC50 on human MAO-A is > 100 µM.

As usually defined, the melting point is the temperature, or range, at which the solid turns liquid. Molecule `O=C(/C=C/c1cccc2c1OCO2)c1ccc(Br)cc1` [Compound 5, (E)-3-(benzo[d][1,3]dioxol-4-yl)-1–(4-bromophenyl)prop-2-en-1-one] registered a melting point of 96 to 100 °C. On human MAO-B, the Selectivity index stood at 67 and the IC50 worked out at 0.106 ± 0.012 µM. Moreover, the IC50 at human MAO-A came to 7.18 ± 0.755 µM.

For `O=C(/C=C/c1cccc2c1OCO2)c1ccc(Cl)cc1` [Compound 6, (E)-3-(benzo[d][1,3]dioxol-4-yl)-1–(4-chlorophenyl)prop-2-en-1-one], the melting point was in the range of 83 to 87 °C. Further, on human MAO-B, the Selectivity index is 130 and the IC50 is 0.139 ± 0.019 µM. The IC50 at human MAO-A was found to be 18.1 ± 3.49 µM.

In the case of `O=C(/C=C/c1cccc2c1OCO2)c1cccc(Br)c1` [Compound 7, (E)-3-(benzo[d][1,3]dioxol-4-yl)-1–(3-bromophenyl)prop-2-en-1-one], the melting point fell in the range of 107 to 111 °C. Also, on human MAO-B, the Selectivity index is given as >1230 and the IC50 was determined as 0.081 ± 0.012 µM. The IC50 on human MAO-A was > 100 µM.

`O=C(/C=C/c1cccc2c1OCO2)c1cccc(Cl)c1` [Compound 8, (E)-3-(benzo[d][1,3]dioxol-4-yl)-1–(3-chlorophenyl)prop-2-en-1-one] displayed a melting point of 79 to 83 °C. On human MAO-B, the Selectivity index is reported as >1720 and the IC50 amounted to 0.058 ± 0.009 µM. The IC50 at human MAO-A was > 100 µM.

For `CS(=O)(=O)c1ccc(C(=O)/C=C/c2ccc(Br)cc2)cc1` [Compound 9, (E)-3–(4-bromophenyl)-1–(4-(methylsulfonyl)phenyl)prop-2-en-1-one], the melting point lay within 206 to 210 °C. On human MAO-B, the Selectivity index is >240 and the IC50 worked out at 0.404 ± 0.064 µM. Moreover, the IC50 on human MAO-A is > 100 µM.

In the case of `COc1cc(Br)ccc1/C=C/C(=O)c1ccc(S(C)(=O)=O)cc1` [Compound 10, (E)-3–(4-bromo-2-methoxyphenyl)-1–(4-(methylsulfonyl)phenyl)prop-2-en-1-one], the melting point fell in the range of 199 to 203 °C. Also, on human MAO-B, the Selectivity index is recorded as 150 and the IC50 is 0.582 ± 0.03 µM. In addition, the IC50 on human MAO-A was 87.3 ± 9.34 µM.

In turn, `CSc1ccc(C(=O)/C=C/c2cccc(Br)c2)cc1` [Compound 11, (E)-3–(3-bromophenyl)-1–(4-(methylthio)phenyl)prop-2-en-1-one] displayed a melting point of 139 to 143 °C. For the same molecule, at human MAO-B, the Selectivity index is on record as 487 and the 50% inhibitory concentration (IC50) is 0.198 ± 0.012 µM. At human MAO-A, the IC50 turned out to be 96.6 ± 5.21 µM.

`O=C(/C=C/c1ccc([N+](=O)[O-])cc1)c1ccc(F)cc1` [Compound 12, (E)-1–(4-fluorophenyl)-3–(4-nitrophenyl)prop-2-en-1-one] registered a melting point of 165 to 169 °C. Further, at human MAO-B, the Selectivity index worked out at 172 and the IC50 is 0.069 ± 0.006 µM. Moreover, at human MAO-A, the IC50 was 11.9 ± 0.822 µM.

`O=C(/C=C/c1ccc([N+](=O)[O-])cc1)c1ccc(Cl)cc1` [Compound 13, (E)-1–(4-chlorophenyl)-3–(4-nitrophenyl)prop-2-en-1-one] returned a melting point of 162 to 166 °C. The IC50 at human MAO-B came to 0.034 ± 0.006 µM. Moreover, the IC50 on human MAO-A worked out at 45.5 ± 2.93 µM.

`O=C(/C=C/c1ccc(Br)cc1)c1ccc2c(c1)OCO2` [Compound 15, (E)-1-(benzo[d][1,3]dioxol-5-yl)-3–(4-bromophenyl)prop-2-en-1-one]: the melting point lay in the range of 150 to 153 °C. At human MAO-B, the Selectivity index came to 1.7 and the half-maximal inhibitory concentration (IC50) came out at 0.102 ± 0.009 µM. For the same molecule, at human MAO-A, the IC50 was 0.173 ± 0.003 µM.

`COc1cc(OC)c(/C=C/C(=O)c2ccc(Br)cc2)c(OC)c1` [Compound 18, (E)-1–(4-bromophenyl)-3–(2,4,6-trimethoxyphenyl)prop-2-en-1-one]: on human MAO-B, the Selectivity index was <0.005 and the IC50 is > 100 µM. In addition, on human MAO-A, the IC50 stood at 0.56 ± 0.076 µM.

With `COc1cc(OC)c(/C=C/C(=O)c2ccc(F)cc2)c(OC)c1` [Compound 19, (E)-1–(4-fluorophenyl)-3–(2,4,6-trimethoxyphenyl)prop-2-en-1-one], the Selectivity index at human MAO-B is recorded as <0.004. Besides, the IC50 at human MAO-B is > 100 µM; on human MAO-A, 0.444 ± 0.039 µM.

`COc1ccccc1/C=C/C(=O)c1ccc(Br)cc1` [Compound 20, (E)-1–(4-bromophenyl)-3–(2-methoxyphenyl)prop-2-en-1-one] registered a melting point of 73 to 77 °C. Also, on human MAO-B, the Selectivity index stood at 5.8 and the IC50 turned out to be 0.999 ± 0.276 µM. Also, the IC50 at human MAO-A stood at 5.81 ± 0.878 µM.

Molecule `COc1cccc(/C=C/C(=O)c2ccc(Br)cc2)c1OC` [Compound 21, (E)-1–(4-bromophenyl)-3–(2,3-dimethoxyphenyl)prop-2-en-1-one] yielded a melting point of 120 to 124 °C. On human MAO-B, the Selectivity index is on record as 37 and the IC50 was determined as 0.174 ± 0.015 µM. Also, the IC50 at human MAO-A came out at 6.59 ± 0.422 µM.

`CCOc1cccc(/C=C/C(=O)c2ccc(Br)cc2)c1OCC` [Compound 22, (E)-1–(4-bromophenyl)-3–(2,3-diethoxyphenyl)prop-2-en-1-one]: the melting point is 75 to 79 °C. Besides, the IC50 at human MAO-B worked out at 15.6 ± 0.803 µM. The IC50 at human MAO-A is > 100 µM.
